Laboratory results reported in ChEMBL document CHEMBL1201862, “PubChem BioAssay data set” (2004).
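Exposure lasted 48 hours, with cells grown in 96-well plates and compounds tested at five concentrations. Here, GI50 denotes the concentration required for 50% inhibition of growth.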 Active and inactive are the calls of the source. Cut-off read from the data, not from the text of the source: active = GI50 up to about 1.1 µM and inactive = higher.

Columns and labels:
Assay in all cases: growth of human tumour cells (NCI), 48 h
[1] = system: A498
[2] = system: CAKI-1
[3] = system: CCRF-CEM
[4] = system: EKVX
[5] = system: HCT-15
[6] = system: HT-29
[7] = system: K562
[8] = system: Malme-3M
[9] = system: SN12C
[10] = system: SNB-19
[11] = system: SNB-75
[12] = system: U-251
[13] = system: UACC-62
[14] = system: HL-60
[15] = system: RXF 393
[16] = system: SF-295
[17] = system: UACC-257
[18] = system: UO-31

| SMILES | GI50 [1] | GI50 [2] | GI50 [3] | GI50 [4] | GI50 [5] [µM] | GI50 [6] | GI50 [7] | GI50 [8] | GI50 [9] | GI50 [10] | GI50 [11] | GI50 [12] | GI50 [13] | GI50 [14] | GI50 [15] | GI50 [16] | GI50 [17] | GI50 [18] |
| --- | --- | --- | --- | --- | --- | --- | --- | --- | --- | --- | --- | --- | --- | --- | --- | --- | --- | --- |
| O=C(N/N=C1/C(=O)N(c2ccc(Cl)cc2Cl)C(=O)C(=O)C1c1nc2ccccc2o1)c1ccccc1O (stereo not given) | 31.3 µM (inactive) | 34.8 µM (inactive) | 47.6 µM (inactive) | 45.7 µM (inactive) | 37.8 | 60.7 µM (inactive) | 47 µM (inactive) | 27.3 µM (inactive) | 33.8 µM (inactive) | 49.7 µM (inactive) | 43.3 µM (inactive) | > 10 µM (inactive) | 20.4 µM (inactive) | – | – | – | – | – |
| COc1ccccc1-c1cc(=O)c2ccccc2[nH]1 | – | – | 66.7 µM (inactive) | > 100 µM (inactive) | 55.1 | – | 36.1 µM (inactive) | 49 µM (inactive) | > 100 µM (inactive) | > 100 µM (inactive) | 55.7 µM (inactive) | > 100 µM (inactive) | 41.7 µM (inactive) | 43.8 µM (inactive) | > 100 µM (inactive) | 40 µM (inactive) | > 100 µM (inactive) | 60.7 µM (inactive) |
| C=C1C(=O)OC2(C)C3CCC(C3)C12 (stereo not given) | – | 30.1 µM (inactive) | 24.8 µM (inactive) | 81.8 µM (inactive) | 60.7 | 34.9 µM (inactive) | 33.3 µM (inactive) | 44.1 µM (inactive) | 57.8 µM (inactive) | > 100 µM (inactive) | 47.1 µM (inactive) | > 100 µM (inactive) | 63.8 µM (inactive) | 19.9 µM (inactive) | – | > 100 µM (inactive) | – | > 100 µM (inactive) |
| COC(=O)C1(C)C=C(Nc2ccccc2)C(=O)N1c1ccccc1 (stereo not given) | – | > 100 µM (inactive) | > 100 µM (inactive) | > 100 µM (inactive) | – | > 100 µM (inactive) | > 100 µM (inactive) | > 100 µM (inactive) | > 100 µM (inactive) | > 100 µM (inactive) | – | > 100 µM (inactive) | 99.5 µM (inactive) | > 100 µM (inactive) | > 100 µM (inactive) | > 100 µM (inactive) | > 100 µM (inactive) | 58.3 µM (inactive) |
| COc1cc(O)c(C(=O)CC(C)=O)c(OC)c1 | – | > 100 µM (inactive) | > 100 µM (inactive) | > 100 µM (inactive) | – | > 100 µM (inactive) | > 100 µM (inactive) | > 100 µM (inactive) | > 100 µM (inactive) | > 100 µM (inactive) | 76.4 µM (inactive) | > 100 µM (inactive) | > 100 µM (inactive) | > 100 µM (inactive) | > 100 µM (inactive) | > 100 µM (inactive) | > 100 µM (inactive) | > 100 µM (inactive) |
| O=[N+]([O-])c1cccc(Nc2nc(Cl)nc(Cl)n2)c1 | – | > 100 µM (inactive) | > 100 µM (inactive) | > 100 µM (inactive) | > 100 | > 100 µM (inactive) | > 100 µM (inactive) | > 100 µM (inactive) | > 100 µM (inactive) | > 100 µM (inactive) | > 100 µM (inactive) | > 100 µM (inactive) | > 100 µM (inactive) | – | – | > 100 µM (inactive) | > 100 µM (inactive) | > 100 µM (inactive) |
| O=C(NC1CCCCC1)NS(=O)(=O)c1ccc2c(c1)CCC2 [GLYHEXAMIDE] | – | – | > 100 µM (inactive) | > 100 µM (inactive) | > 100 | – | > 100 µM (inactive) | > 100 µM (inactive) | > 100 µM (inactive) | > 100 µM (inactive) | > 100 µM (inactive) | > 100 µM (inactive) | > 100 µM (inactive) | > 100 µM (inactive) | > 100 µM (inactive) | > 100 µM (inactive) | > 100 µM (inactive) | > 100 µM (inactive) |
| Oc1ccc2c(c1)CC[N+]1=C2CCC2CCCC21 (stereo not given) [QUINDONIUM BROMIDE] | – | > 100 µM (inactive) | – | > 100 µM (inactive) | > 100 | > 100 µM (inactive) | – | – | > 100 µM (inactive) | > 100 µM (inactive) | > 100 µM (inactive) | – | > 100 µM (inactive) | – | > 100 µM (inactive) | > 100 µM (inactive) | – | > 100 µM (inactive) |
